Source: patent publication US8895571B2, “Isoindolinone and pyrrolopyridinone derivatives as Akt inhibitors” (Incyte Corporation, priority 2011, dated 2014)

Key:
Full length Akt1 = target: T1, Full length Akt1 (Homo sapiens, UniProt P31749); assay: In vitro Akt kinase enzymatic assay (HTRF), Akt1; assay type: biochemical; details: 0.4 nM Akt1, substrate solution with 5 mM ATP, 25° C. 1 hr
T1 construct: Full length Akt1 (cat #P2999); purchased PerkinElmer P2999
Outline: (§1)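 Full-length enzyme (0.4 nM Akt1 or 0.6 nM Akt2/Akt3 in the enzyme solution) was combined with a substrate solution of 0.1 μM ULight-Crosstide plus 5 mM ATP in pH 7.8 HEPES/MgCl2/DTT/Tween20 buffer and reacted 1 hr at 25° C. The EDTA stop contained Eu anti-phospho-Crosstide; IC50 was fitted from 11-point HTRF inhibition curves.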

Full length Akt2 = target: T2, Full length Akt2 (Homo sapiens, UniProt P31751); assay: In vitro Akt kinase enzymatic assay (HTRF), Akt2; assay type: biochemical; details: 0.6 nM Akt2, substrate solution with 5 mM ATP, 25° C. 1 hr
T2 construct: Full length Akt1 (cat #P2999), Akt2 (cat #PV3184); purchased PerkinElmer PV3184
Outline: as §1

Full length Akt3 = target: T3, Full length Akt3 (Homo sapiens, UniProt Q9Y243); assay: In vitro Akt kinase enzymatic assay (HTRF), Akt3; assay type: biochemical; details: 0.6 nM Akt3, substrate solution with 5 mM ATP, 25° C. 1 hr
T3 construct: Full length Akt1 (cat #P2999), Akt2 (cat #PV3184), Akt3 (cat #PV3185); purchased PerkinElmer PV3185
Outline: as §1

Full length PKA = target: T4, Full length PKA (Homo sapiens, UniProt P17612); assay: PKA in vitro enzymatic assay (HTRF); assay type: biochemical; details: 0.035 nM enzyme solution, substrate solution with 5 mM ATP, 25° C. 1 hr
T4 construct: Full length PKA (cat #P2912); purchased Invitrogen P2912
Outline: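 IC50 came from curve fitting of percent inhibition across an 11-point, 3-fold compound series, with HTRF read after EDTA quench and Tb-labelled p-S133 antibody detection. Enzyme (0.035 nM solution) and substrate (0.1 μM fluorescein-CREBtide solution containing 5 mM ATP) reacted for 1 h at 25°C. The buffer was HEPES 50 mM pH 7.8 with 10 mM MgCl2, 5 mM DTT and 0.005% Tween20.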

[1] = system: LNCaP cells (human prostate tumor cell line); assay: Akt LNCaP proliferation assay (MTS); assay type: cell-based; details: 48 hours
Outline: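 Cells plated at 10,000/well in RPMI with 2% FBS overnight at 37° C., 5% CO2, then exposed to compound at 1000 nM to 0.5 nM (3-fold dilutions) for 48 hours. Viable cells measured by MTS colorimetric read-out after 2 hours; IC50 taken as concentration giving 50% inhibition of total proliferation.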

[2] = 2% fetal bovine serum, class symbols
[3] = given as a bound, final concentrations 1000 nM to 0.5 nM

T3 sequence (Q9Y243 whole entry): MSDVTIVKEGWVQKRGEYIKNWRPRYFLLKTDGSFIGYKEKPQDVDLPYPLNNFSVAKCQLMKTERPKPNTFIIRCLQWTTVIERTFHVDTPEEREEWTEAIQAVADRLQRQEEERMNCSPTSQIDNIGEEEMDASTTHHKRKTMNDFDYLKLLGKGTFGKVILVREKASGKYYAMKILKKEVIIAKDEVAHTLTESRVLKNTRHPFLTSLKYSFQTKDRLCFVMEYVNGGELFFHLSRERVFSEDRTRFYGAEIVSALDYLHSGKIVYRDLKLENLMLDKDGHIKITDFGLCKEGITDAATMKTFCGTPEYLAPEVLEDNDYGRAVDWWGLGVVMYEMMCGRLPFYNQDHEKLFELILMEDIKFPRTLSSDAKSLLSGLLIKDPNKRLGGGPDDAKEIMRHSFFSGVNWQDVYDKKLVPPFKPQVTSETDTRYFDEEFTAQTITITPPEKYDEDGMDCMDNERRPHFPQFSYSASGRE
T2 sequence (P31751 whole entry): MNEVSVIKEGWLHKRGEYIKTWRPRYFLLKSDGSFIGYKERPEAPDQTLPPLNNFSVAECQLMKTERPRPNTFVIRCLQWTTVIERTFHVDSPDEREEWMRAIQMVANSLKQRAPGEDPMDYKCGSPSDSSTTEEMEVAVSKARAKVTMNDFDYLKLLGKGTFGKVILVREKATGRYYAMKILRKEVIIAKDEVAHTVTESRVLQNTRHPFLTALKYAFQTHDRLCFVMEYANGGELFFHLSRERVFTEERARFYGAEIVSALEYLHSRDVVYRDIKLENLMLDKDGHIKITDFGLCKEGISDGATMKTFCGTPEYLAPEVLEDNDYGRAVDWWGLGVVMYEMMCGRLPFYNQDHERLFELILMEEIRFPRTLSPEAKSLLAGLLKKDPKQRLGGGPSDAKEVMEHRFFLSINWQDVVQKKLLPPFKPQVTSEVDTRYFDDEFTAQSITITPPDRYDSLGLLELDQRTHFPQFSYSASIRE
T1 sequence (P31749 whole entry): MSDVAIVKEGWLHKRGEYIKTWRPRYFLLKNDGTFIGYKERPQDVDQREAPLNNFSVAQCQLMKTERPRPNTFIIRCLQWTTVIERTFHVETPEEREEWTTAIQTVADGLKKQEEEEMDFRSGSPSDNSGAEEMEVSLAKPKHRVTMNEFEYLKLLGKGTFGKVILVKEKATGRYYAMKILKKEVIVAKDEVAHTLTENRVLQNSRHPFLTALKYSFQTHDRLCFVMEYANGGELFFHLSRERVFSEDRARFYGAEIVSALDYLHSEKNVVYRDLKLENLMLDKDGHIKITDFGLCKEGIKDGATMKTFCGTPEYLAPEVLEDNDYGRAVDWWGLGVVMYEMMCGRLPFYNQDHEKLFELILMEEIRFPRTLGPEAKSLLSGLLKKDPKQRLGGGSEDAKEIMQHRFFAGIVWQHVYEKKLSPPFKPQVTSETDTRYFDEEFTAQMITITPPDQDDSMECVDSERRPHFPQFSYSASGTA

| Structure (SMILES) | IC50 (Full length Akt1) | IC50 (Full length Akt2) | IC50 (Full length Akt3) | IC50 (Full length PKA) | IC50 [1, 2] | IC50 [1, 3] |
| --- | --- | --- | --- | --- | --- | --- |
| Cn1nccc1-c1ccc2c(c1)CN([C@H](CN)Cc1cccc(C#N)c1)C2=O [Example 75, 3-{(2S)-3-amino-2-[5-(1-methyl-1H-pyrazol-5-yl)-1-oxo-1,3-dihydro-2H-isoindol-2-yl]propyl}benzonitrile] | 500 to 5000 nM | < 500 nM | 500 to 5000 nM | > 5000 nM | < 500 nM |  |
| Cn1nccc1-c1ccc2c(c1)CN([C@H](CN)Cc1csc3ccccc13)C2=O [Example 76, 2-[(1S)-2-amino-1-(1-benzothien-3-ylmethyl)ethyl]-5-(1-methyl-1H-pyrazol-5-yl)isoindolin-1-one] | < 500 nM | < 500 nM | < 500 nM | > 5000 nM | < 500 nM |  |
| Cn1nccc1-c1ccc2c(c1)CN([C@H](CN)Cc1cccnc1)C2=O [Example 78, 2-[(1S)-2-amino-1-(pyridin-3-ylmethyl)ethyl]-5-(1-methyl-1H-pyrazol-5-yl)isoindolin-1-one] | < 500 nM | < 500 nM | 500 to 5000 nM | > 5000 nM | < 500 nM |  |
| Cn1nccc1-c1ccc2c(c1)CN([C@H](CN)Cc1ccccn1)C2=O [Example 79, 2-[(1S)-2-amino-1-(pyridin-2-ylmethyl)ethyl]-5-(1-methyl-1H-pyrazol-5-yl)isoindolin-1-one] | < 500 nM | < 500 nM | 500 to 5000 nM | > 5000 nM | 500 to 5000 nM |  |
| Cn1nccc1-c1ccc2c(c1)CN([C@H](CN)Cc1cccs1)C2=O [Example 80, 2-[(1S)-2-amino-1-(2-thienylmethyl)ethyl]-5-(1-methyl-1H-pyrazol-5-yl)isoindolin-1-one] | < 500 nM | < 500 nM | < 500 nM | 500 to 5000 nM | < 500 nM |  |
| Cn1nccc1-c1ccc2c(c1)CN([C@H](CN)Cc1ccsc1)C2=O [Example 81, 2-[(1S)-2-amino-1-(3-thienylmethyl)ethyl]-5-(1-methyl-1H-pyrazol-5-yl)isoindolin-1-one] | < 500 nM | < 500 nM | < 500 nM | 500 to 5000 nM | < 500 nM |  |
| Cn1nccc1-c1ccc2c(c1)CN([C@H](CN)Cc1cccc(-c3ccncc3)c1)C2=O [Example 85, 2-[(1S)-2-amino-1-(3-pyridin-4-ylbenzyl)ethyl]-5-(1-methyl-1H-pyrazol-5-yl)isoindolin-1-one] | > 5000 nM | > 5000 nM | > 5000 nM | > 5000 nM |  | > 1000 nM |
| Cn1nccc1-c1ccc2c(c1)CN([C@H](CN)Cc1cccc(-c3cccnc3)c1)C2=O [Example 86, 2-[(1S)-2-amino-1-(3-pyridin-3-ylbenzyl)ethyl]-5-(1-methyl-1H-pyrazol-5-yl)isoindolin-1-one] | 500 to 5000 nM | > 5000 nM | > 5000 nM | > 5000 nM |  | > 1000 nM |
| Cn1nccc1-c1ccc2c(c1)CN([C@H](CN)Cc1cccc(-c3cncnc3)c1)C2=O [Example 87, 2-[(1S)-2-amino-1-(3-pyrimidin-5-ylbenzyl)ethyl]-5-(1-methyl-1H-pyrazol-5-yl)isoindolin-1-one] | 500 to 5000 nM | > 5000 nM | > 5000 nM | > 5000 nM |  | > 1000 nM |
| C#Cc1cccc(C[C@@H](CN)N2Cc3cc(-c4ccnn4C)ccc3C2=O)c1 [Example 88, 2-[(1S)-2-amino-1-(3-ethynylbenzyl)ethyl]-5-(1-methyl-1H-pyrazol-5-yl)isoindolin-1-one] | < 500 nM | < 500 nM | < 500 nM | 500 to 5000 nM | < 500 nM |  |
| C#Cc1cccc(C[C@@H](CN)N2Cc3cc(-c4c(Cl)cnn4C)ccc3C2=O)c1 [Example 89, 2-[(1S)-2-amino-1-(3-ethynylbenzyl)ethyl]-5-(4-chloro-1-methyl-1H-pyrazol-5-yl)isoindolin-1-one] | < 500 nM | < 500 nM | < 500 nM | 500 to 5000 nM | < 500 nM |  |
| Cn1ncc(Cl)c1-c1cnc2c(c1)CN([C@H](CN)Cc1cccc(F)c1)C2=O [Example 90, 6-[(1S)-2-amino-1-(3-fluorobenzyl)ethyl]-3-(4-chloro-1-methyl-1H-pyrazol-5-yl)-5,6-dihydro-7H-pyrrolo[3,4-b]pyridin-7-one] | < 500 nM | < 500 nM | < 500 nM | > 5000 nM | < 500 nM |  |
| Cn1ncc(Br)c1-c1cnc2c(c1)CN([C@H](CN)Cc1cccc(F)c1)C2=O [Example 91, 6-[(1S)-2-amino-1-(3-fluorobenzyl)ethyl]-3-(4-bromo-1-methyl-1H-pyrazol-5-yl)-5,6-dihydro-7H-pyrrolo[3,4-b]pyridin-7-one] | < 500 nM | < 500 nM | < 500 nM | > 5000 nM | < 500 nM |  |
| Cn1ncc(Cl)c1-c1cc2c(cn1)C(=O)N([C@H](CN)Cc1cccc(F)c1)C2 [Example 92, 2-[(1S)-2-amino-1-(3-fluorobenzyl)ethyl]-6-(4-chloro-1-methyl-1H-pyrazol-5-yl)-1,2-dihydro-3H-pyrrolo[3,4-c]pyridin-3-one] | < 500 nM | < 500 nM | < 500 nM | 500 to 5000 nM | < 500 nM |  |
| Cn1nccc1-c1cc2c(cn1)C(=O)N([C@H](CN)Cc1cccc(F)c1)C2 [Example 93, 2-[(1S)-2-amino-1-(3-fluorobenzyl)ethyl]-6-(1-methyl-1H-pyrazol-5-yl)-1,2-dihydro-3H-pyrrolo[3,4-c]pyridin-3-one] | < 500 nM | < 500 nM | < 500 nM | 500 to 5000 nM | < 500 nM |  |
| Cc1cnn(C)c1-c1cc2c(cn1)C(=O)N([C@H](CN)Cc1cccc(F)c1)C2 [Example 94, 2-[(1S)-2-amino-1-(3-fluorobenzyl)ethyl]-6-(4-methyl-1-methyl-1H-pyrazol-5-yl)-1,2-dihydro-3H-pyrrolo[3,4-c]pyridin-3-one] | < 500 nM | < 500 nM | < 500 nM | 500 to 5000 nM | < 500 nM |  |
| CC(C)OCc1cnn(C)c1-c1cc2c(cn1)C(=O)N([C@H](CN)Cc1cccc(F)c1)C2 [Example 95, 2-[(1S)-2-amino-1-(3-fluorobenzyl)ethyl]-6-[4-(2-propoxymethyl)-1-methyl-1H-pyrazol-5-yl]-1,2-dihydro-3H-pyrrolo[3,4-c]pyridin-3-one] | < 500 nM | < 500 nM | < 500 nM | > 5000 nM | < 500 nM |  |
| Cn1ncc(COC2CCC2)c1-c1cc2c(cn1)C(=O)N([C@H](CN)Cc1cccc(F)c1)C2 [Example 97, 2-[(1S)-2-amino-1-(3-fluorobenzyl)ethyl]-6-[4-(cyclobutoxymethyl)-1-methyl-1H-pyrazol-5-yl]-1,2-dihydro-3H-pyrrolo[3,4-c]pyridin-3-one] | < 500 nM | < 500 nM | < 500 nM | > 5000 nM | < 500 nM |  |
| Cn1ncc(Cl)c1-c1cc2c(cn1)C(=O)N([C@H](CN)Cc1ccccc1)C2 [Example 100, 2-((1S)-2-amino-1-benzylethyl)-6-(4-chloro-1-methyl-1H-pyrazol-5-yl)-1,2-dihydro-3H-pyrrolo[3,4-c]pyridin-3-one] | < 500 nM | < 500 nM | < 500 nM | 500 to 5000 nM | < 500 nM |  |
| Cn1ncc(Cl)c1-c1cc2c(cn1)C(=O)N([C@H](CN)Cc1cc(F)cc(F)c1)C2 [Example 101, 2-[(1S)-2-amino-1-(3,5-difluorobenzyl)ethyl]-6-(4-chloro-1-methyl-1H-pyrazol-5-yl)-1,2-dihydro-3H-pyrrolo[3,4-c]pyridin-3-one] | < 500 nM | < 500 nM | < 500 nM | 500 to 5000 nM | < 500 nM |  |
| Cn1nccc1-c1cc2c(cn1)C(=O)N([C@H](CN)Cc1cc(F)cc(F)c1)C2 [Example 102, 2-[(1S)-2-amino-1-(3,5-difluoro-benzyl)ethyl]-6-(1-methyl-1H-pyrazol-5-yl)-1,2-dihydro-3H-pyrrolo[3,4-c]pyridin-3-one] | < 500 nM | < 500 nM | < 500 nM | 500 to 5000 nM | < 500 nM |  |
| Cc1cnn(C)c1-c1cc2c(cn1)C(=O)N([C@H](CN)Cc1cc(F)cc(F)c1)C2 [Example 103, 2-[(1S)-2-amino-1-(3,5-difluoro-benzyl)ethyl]-6-(4-methyl-1-methyl-1H-pyrazol-5-yl)-1,2-dihydro-3H-pyrrolo[3,4-c]pyridin-3-one] | < 500 nM | < 500 nM | < 500 nM | 500 to 5000 nM | < 500 nM |  |
